Laboratory results from PMC6791321, “CD23 is a glycan-binding receptor in some mammalian species” (The Journal of Biological Chemistry, 2019).

Key:
Assay type in all cases: binding
[1] = molecular target: T1, cow CD23 CRD (Bos taurus, UniProt E1BIQ4); test: solid-phase competition with horseradish peroxidase reporter, immobilized biotin-tagged CRD; conditions: pH 7.8, 2.5 mM CaCl2, 150 mM NaCl, 4 °C, competitive, KI approximates KD
T1 construct: gene FCER2; untagged for crystals; C-terminal biotinylation tag LNDIFEAQKIEWHE for solid-phase assays
T1 sequence (E1BIQ4 169-302): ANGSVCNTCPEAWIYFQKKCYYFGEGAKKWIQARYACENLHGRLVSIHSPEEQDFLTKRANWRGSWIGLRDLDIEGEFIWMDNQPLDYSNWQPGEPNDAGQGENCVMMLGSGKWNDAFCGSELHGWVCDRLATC
Text: solid-phase competition with horseradish peroxidase reporter, immobilized biotin-tagged CRD on cow CD23 CRD | The three monosaccharides with highest affinity are mannose, fucose, and GlcNAc

[2] = molecular target: T2, mouse CD23 CRD (Mus musculus, UniProt P20693); test: as above; conditions: pH 7.8, 2.5 mM CaCl2, 150 mM NaCl, 4 °C, competitive, KI approximates KD
T2 construct: gene Fcer2
T2 sequence (P20693 185-298 limits assumed): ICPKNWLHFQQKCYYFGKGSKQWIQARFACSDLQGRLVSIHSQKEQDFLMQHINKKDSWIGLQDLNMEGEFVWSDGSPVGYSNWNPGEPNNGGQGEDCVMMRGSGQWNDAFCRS

[3] = molecular target: T1, cow CD23 CRD; test: as above; conditions: pH 7.8, 2.5 mM CaCl2, 150 mM NaCl, 4 °C; competitive
[4] = molecular target: T1, cow CD23 CRD; test: solid-phase competition with horseradish peroxidase reporter, immobilized biotin-tagged CRD; also crystal structure at […] Å (untagged CRD)
[5] = may have been tested as methyl glycoside

With `CC(=O)N[C@H]1C(O)O[C@H](CO)[C@@H](O)[C@@H]1O` (some centres unmarked) [GlcNAc] the Ki [1] was 1100 µM and the Ki [2] was 5200 µM.
`CC(=O)N[C@H]1[C@H](O[C@H]2[C@H](O)[C@@H](NC(C)=O)C(O)O[C@@H]2CO)O[C@H](CO)[C@@H](O[C@@H]2O[C@H](CO[C@H]3O[C@H](CO[C@H]4O[C@H](CO)[C@@H](O)[C@H](O)[C@@H]4O[C@H]4O[C@H](CO)[C@@H](O)[C@H](O)[C@@H]4O)[C@@H](O)[C@H](O[C@H]4O[C@H](CO)[C@@H](O)[C@H](O)[C@@H]4O[C@H]4O[C@H](CO)[C@@H](O)[C@H](O)[C@@H]4O)[C@@H]3O)[C@@H](O)[C@H](O[C@H]3O[C@H](CO)[C@@H](O)[C@H](O)[C@@H]3O[C@H]3O[C@H](CO)[C@@H](O)[C@H](O)[C@@H]3O[C@H]3O[C@H](CO)[C@@H](O)[C@H](O)[C@@H]3O)[C@@H]2O)[C@@H]1O` (some centres unmarked) [Man9GlcNAc2] was tested, and the “ratio of affinities relative to α-methyl mannoside” value [3] was 240 ± 50 fold.
For `C[C@@H]1OC(O)[C@@H](O)[C@H](O)[C@@H]1O` (some centres unmarked) [fucose], the Ki [1, 5] was 1800 µM and the Ki [2, 5] was 8400 µM.
`OC[C@H]1OC(O)[C@@H](O)[C@@H](O)[C@@H]1O` (some centres unmarked) [mannose] was tested, and the Ki [1] was 1600 µM and the Ki [2] was 5700 µM.
With `CO[C@H]1O[C@H](CO)[C@@H](O)[C@H](O)[C@@H]1O` [α-methyl mannoside] the Ki [4] was 1600 µM.
